Data taken from patent US20230143612A1 (Arbutus Biopharma Corporation, priority 2020, published 2023).

Target: PD-L1 His protein / PD-1 Fc protein (Homo sapiens, UniProt Q9NZQ7)
Assay: HTRF Assay (PD-1/PD-L1 interaction)
Assay type: binding
Conditions: PD-L1 His 6 nM, PD-1 Fc 6 nM
Method: PD-L1 His protein was prepared and added at the final concentration of 6 nM in the White opaque 384 well plate (Corning cat #3824BC). PD-L1 small molecule inhibitors were diluted by 3-fold starting from 20 μM and a final concentration of 0.001 μM and added to the well. PD-1 Fc protein was added at the final concentration of 6 nM. PD-L1 His protein, PD-L1 small molecule inhibitors, and PD1 Fc proteins were added to the well in this order, with each 5 μl volume, and were incubated for 15 minutes at room temperature. PAb anti-Human IgG-XL665 (Cisbio, cat #61HFCXLA) and Mab anti-6HIS Tb cryptate Gold (Cisbio, cat #61HI2TLA) were mixed at 6.7 nM and 0.35 nM respectively, and total 5 μl volume of mixture was added to the well and incubated at room temperature for 1 hour. The plate was read using PerkinElmer Envision plate reader and data was analyzed by Prism 6 software.

PD-L1 His protein / PD-1 Fc protein, sequence (Q9NZQ7 19-238 limits assumed): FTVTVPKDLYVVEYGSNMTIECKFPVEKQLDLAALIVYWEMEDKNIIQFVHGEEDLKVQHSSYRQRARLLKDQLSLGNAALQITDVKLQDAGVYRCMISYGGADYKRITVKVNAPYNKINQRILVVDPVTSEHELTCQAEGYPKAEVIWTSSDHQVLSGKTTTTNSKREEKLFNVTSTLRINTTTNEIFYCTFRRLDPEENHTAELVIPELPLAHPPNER

SMILES	IC50
Cc1c(COc2cc(OCc3cncc(C#N)c3)c(CNCCO)cc2Cl)cccc1-c1cccc(-n2cnc3cc(CNCCO)ccc3c2=O)c1C [Example 6, 5-((4-Chloro-2-(((2-hydroxyethyl)amino)methyl)-5-((3′-(7-(((2-hydroxyethyl)amino)methyl)-4-oxoquinazolin-3(4H)-yl)-2,2′-dimethyl-[1,1′-biphenyl]-3-yl)methoxy)phenoxy)methyl)nicotinonitrile]	44 nM
Cc1c(COc2cc(OCc3cncc(C#N)c3)c(CN[C@@](C)(CO)C(=O)O)cc2Cl)cccc1-c1cccc(-c2ccn3c(=O)c(CN[C@@](C)(CO)C(=O)O)cnc3c2)c1C [Example 7, (S)-2-(((8-(3′-((4-((((S)-2-Carboxy-1-hydroxypropan-2-yl)amino)methyl)-2-chloro-5-((5-cyanopyridin-3-yl)methoxy)phenoxy)methyl)-2,2′-dimethyl-[1,1′-biphenyl]-3-yl)-4-oxo-4H-pyrido[1,2-a]pyrimidin-3-yl)methyl)amino)-3-hydroxy-2-methylpropanoic acid]	0.2 nM
Cc1c(COc2cc(OCc3cncc(C#N)c3)c(CNCCO)cc2Cl)cccc1-c1cccc(-c2ccc3c(c2)C(=O)N(C)CC(=O)N3CCNCCO)c1C [Example 8, 5-((4-Chloro-5-((3′-(1-(2-((2-hydroxyethyl)amino)ethyl)-4-methyl-2,5-dioxo-2,3,4,5-tetrahydro-1H-benzo[e][1,4]diazepin-7-yl)-2,2′-dimethyl-[1,1′-biphenyl]-3-yl)methoxy)-2-(((2-hydroxyethyl)amino)methyl)phenoxy)methyl)nicotinonitrile]	0.8 nM
Cc1c(COc2cc(OCc3cncc(C#N)c3)c(CNCCO)cc2Cl)cccc1-c1cccc(-c2ccn3c(=O)c(CNCCO)ccc3c2)c1C [Example 9, 5-((4-Chloro-2-(((2-hydroxyethyl)amino)methyl)-5-((3′-(3-(((2-hydroxyethyl)amino)methyl)-4-oxo-4H-quinolizin-8-yl)-2,2′-dimethyl-[1,1′-biphenyl]-3-yl)methoxy)phenoxy)methyl)nicotinonitrile]	1.1 nM
Cc1c(COc2cc(OCc3cncc(C#N)c3)c(CN3CCCC[C@H]3C(=O)O)cc2Cl)cccc1-c1cccc(-c2ccn3c(=O)c(CN4CCCC[C@H]4C(=O)O)cnc3c2)c1C [Example 11, (S)-1-((8-(3′-((4-(((S)-2-Carboxypiperidin-1-yl)methyl)-2-chloro-5-((5-cyanopyridin-3-yl)methoxy)phenoxy)methyl)-2,2′-dimethyl-[1,1′-biphenyl]-3-yl)-4-oxo-4H-pyrido[1,2-a]pyrimidin-3-yl)methyl)piperidine-2-carboxylic acid]	0.6 nM
Cc1c(COc2cc(OCc3cncc(C#N)c3)c(CNC[C@@H]3CCC(=O)N3)cc2Cl)cccc1-c1cccc(-c2ccn3c(=O)c(CNC[C@@H]4CCC(=O)N4)cnc3c2)c1C [Example 12, 5-((4-Chloro-5-((2,2′-dimethyl-3′-(4-oxo-3-(((((S)-5-oxopyrrolidin-2-yl)methyl)amino)methyl)-4H-pyrido[1,2-a]pyrimidin-8-yl)-[1,1′-biphenyl]-3-yl)methoxy)-2-(((((S)-5-oxopyrrolidin-2-yl)methyl)amino)methyl)phenoxy)methyl)nicotinonitrile]	0.3 nM
Cc1c(COc2cc(OCc3cncc(C#N)c3)c(CNC[C@H]3CCC(=O)N3)cc2Cl)cccc1-c1cccc(-c2ccn3c(=O)c(CNC[C@H]4CCC(=O)N4)cnc3c2)c1C [Example 13, 5-((4-Chloro-5-((2,2′-dimethyl-3′-(4-oxo-3-(((((R)-5-oxopyrrolidin-2-yl)methyl)amino)methyl)-4H-pyrido[1,2-a]pyrimidin-8-yl)-[1,1′-biphenyl]-3-yl)methoxy)-2-(((((R)-5-oxopyrrolidin-2-yl)methyl)amino)methyl)phenoxy)methyl)nicotinonitrile]	0.8 nM
Cc1c(-c2ccn3c(=O)c(CNCCO)cnc3c2)cccc1-c1cccc(COc2cc(OCc3cncc(C#N)c3)c(CNCCO)cc2Cl)c1Cl [Example 14, 5-((4-Chloro-5-((2-chloro-3′-(3-(((2-hydroxyethyl)amino)methyl)-4-oxo-4H-pyrido[1,2-a]pyrimidin-8-yl)-2′-methyl-[1,1′-biphenyl]-3-yl)methoxy)-2-(((2-hydroxyethyl)amino)methyl)phenoxy)methyl)nicotinonitrile]	0.4 nM
Cc1c(-c2ccn3c(=O)c(CNCCO)cnc3c2)cccc1-c1cccc(-c2ccn3c(=O)c(CNCCO)cnc3c2)c1C [Example 15, 8,8′-(2,2′-Dimethyl-[1,1′-biphenyl]-3,3′-diyl)bis(3-(((2-hydroxyethyl)amino)methyl)-4H-pyrido[1,2-a]pyrimidin-4-one)]	60 nM
Cc1c(-c2ccn3c(=O)c(CNCCO)cnc3c2)cccc1-c1cccc(COc2cc(OCc3cncc(C#N)c3)c(CNCCO)cc2Cl)c1C#N [Example 16, 5-((4-Chloro-5-((2-cyano-3′-(3-(((2-hydroxyethyl)amino)methyl)-4-oxo-4H-pyrido[1,2-a]pyrimidin-8-yl)-2′-methyl-[1,1′-biphenyl]-3-yl)methoxy)-2-(((2-hydroxyethyl)amino)methyl)phenoxy)methyl)nicotinonitrile]	0.7 nM
Cc1c(COc2cc(OCc3cncc(C#N)c3)c(CNCCO)cc2Cl)cccc1-c1cccc(-c2cnc3cc(CNCCO)ccn3c2=O)c1C [Example 17, 5-((4-Chloro-2-(((2-hydroxyethyl)amino)methyl)-5-((3′-(8-(((2-hydroxyethyl)amino)methyl)-4-oxo-4H-pyrido[1,2-a]pyrimidin-3-yl)-2,2′-dimethyl-[1,1′-biphenyl]-3-yl)methoxy)phenoxy)methyl)nicotinonitrile]	2 nM
Cc1c(COc2cc(OCc3cncc(C#N)c3)c(CNC[C@@H]3CCC(=O)N3)cc2Cl)cccc1-c1cccc(-c2ccc3c(c2)C(=O)N(C)CC(=O)N3CCNC[C@@H]2CCC(=O)N2)c1C [Example 20, 5-((4-Chloro-5-((2,2′-dimethyl-3′-(4-methyl-2,5-dioxo-1-(2-((((S)-5-oxopyrrolidin-2-yl)methyl)amino)ethyl)-2,3,4,5-tetrahydro-1H-benzo[e][1,4]diazepin-7-yl)-[1,1′-biphenyl]-3-yl)methoxy)-2-(((((S)-5-oxopyrrolidin-2-yl)methyl)amino)methyl)phenoxy)methyl)nicotinonitrile]	4.2 nM
Cc1c(/C=C(\F)c2ccc(CNCCO)cn2)cccc1-c1cccc(-c2ccn3c(=O)c(CNCCO)cnc3c2)c1C [Example 21, (Z)-8-(3′-(2-Fluoro-2-(5-(((2-hydroxyethyl)amino)methyl)pyridin-2-yl)vinyl)-2,2′-dimethyl-[1,1′-biphenyl]-3-yl)-3-(((2-hydroxyethyl)amino)methyl)-4H-pyrido[1,2-a]pyrimidin-4-one]	4.8 nM
Cc1c(COc2cc(OCc3cncc(C#N)c3)c(CNCCO)cc2Cl)cccc1-c1cccc(-c2ccc3c(c2)N(C)C(=O)CCC3NCCO)c1C (stereo not drawn) [Example 22, 5-((4-Chloro-5-((3′-(5-((2-hydroxyethyl)amino)-1-methyl-2-oxo-2,3,4,5-tetrahydro-1H-benzo[b]azepin-8-yl)-2,2′-dimethyl-[1,1′-biphenyl]-3-yl)methoxy)-2-(((2-hydroxyethyl)amino)methyl)phenoxy)methyl)nicotinonitrile]	6 nM
Cc1c(COc2cc(OCc3cncc(C#N)c3)c(CNCCO)cc2Cl)cccc1-c1cccc(-n2ccc(CNCCO)cc2=O)c1C [Example 23, 5-((4-Chloro-2-(((2-hydroxyethyl)amino)methyl)-5-((3′-(4-(((2-hydroxyethyl)amino)methyl)-2-oxopyridin-1(2H)-yl)-2,2′-dimethyl-[1,1′-biphenyl]-3-yl)methoxy)phenoxy)methyl)nicotinonitrile]	33 nM
Cc1c(COc2cc(OCc3cncc(C#N)c3)c(CNC[C@@H]3CCC(=O)N3)cc2Cl)cccc1-c1cccc(-c2ccn3c(=O)c(CNC[C@@H]4CCC(=O)N4)ccc3c2)c1C [Example 24, 5-((4-Chloro-5-((2,2′-dimethyl-3′-(4-oxo-3-(((((S)-5-oxopyrrolidin-2-yl)methyl)amino)methyl)-4H-quinolizin-8-yl)-[1,1′-biphenyl]-3-yl)methoxy)-2-(((((S)-5-oxopyrrolidin-2-yl)methyl)amino)methyl)phenoxy)methyl)nicotinonitrile]	0.5 nM
Cc1c(COc2cc(OCc3cncc(C#N)c3)c(CNCCO)cc2Cl)cccc1-c1cccc(-c2ccn3c(=O)c(CNCCO)cnc3c2)c1C#N [Example 25, 5-((4-Chloro-5-((2′-cyano-3′-(3-(((2-hydroxyethyl)amino)methyl)-4-oxo-4H-pyrido[1,2-a]pyrimidin-8-yl)-2-methyl-[1,1′-biphenyl]-3-yl)methoxy)-2-(((2-hydroxyethyl)amino)methyl)phenoxy)methyl)nicotinonitrile]	0.3 nM
Cc1c(COc2cc(OCc3cncc(C#N)c3)c(CN3CC(CO)C3)cc2Cl)cccc1-c1cccc(-c2ccc3c(c2)C(=O)N(C)CC(=O)N3CCN2CC(CO)C2)c1C [Example 26, 5-((4-Chloro-5-((3′-(1-(2-(3-(hydroxymethyl)azetidin-1-yl)ethyl)-4-methyl-2,5-dioxo-2,3,4,5-tetrahydro-1H-benzo[e][1,4]diazepin-7-yl)-2,2′-dimethyl-[1,1′-biphenyl]-3-yl)methoxy)-2-((3-(hydroxymethyl)azetidin-1-yl)methyl)phenoxy)methyl)nicotinonitrile]	0.7 nM
